In US10509041B2, “Glucose derivative, and cell imaging method and imaging agent using said derivative” (HIROSAKI UNIVERSITY, priority 2014, dated 2019):

How the values were obtained:
[1] = Fluorescence spectrum (excitation and fluorescence maxima); type: physicochemical
Source text: The fluorescence spectra of CDG synthesized in (1) and QDG synthesized in (2) were compared with the fluorescence spectrum of 2-NBDLG (manufactured by Peptide Institute, Inc.).
The numeric values described above the graph denote the fluorescence maximum of CDG and QDG, respectively. It is evident that the fluorescence maximum was largely shifted to shorter wavelength as compared with the fluorescence maximum of 2-NBDLG present around 550 nm.

[2] = test system: MIN6 cell masses (spheroids); assay: Fluorescent imaging of tumor cell masses (spheroids) of MIN6 cells with mixed fluorescent glucose derivative solutions; type: cell-based, mouse; details: 100 μM CDG+100 μM 2-NBDLG+20 μM 2-TRLG mixed solution, 3 minutes, 6 minutes after start of washout, culture day 17
Description: A fluorescent mixed solution containing 100 μM CDG, 100 μM 2-NBDLG, and 20 μM 2-TRLG (CDG/2-NBDLG/2-TRLG) was administered at 37° C. for 3 minutes to MIN6 cell masses (spheroids) at culture day 17, and fluorescent imaging was conducted.
10 μL of a culture solution containing MIN6 cells suspended at a density of 6×10^4 cells/mL was added dropwise onto each glass cover slip, and then, the glass cover slip was left standing for 40 minutes in an incubator for fixation to the glass surface. The cells were cultured by the addition of 3 mL of a culture solution (600 cells/slip). Spheroids were formed by continuing the culture for 15 to 17 days. Half the amount of the culture solution was replaced with a fresh one once every three days.
The MIN6 cells used were cells kindly provided by professor Junichi Miyazaki (Osaka University) and subcultured 6 to 10 times. Half the amount of the culture solution was replaced with a fresh one once every two days.
13.4 g of high glucose-containing Dulbecco's modified Eagle's Medium (DMEM-HG) (Sigma-Aldrich, #D5648), 3.4 g of NaHCO3, and 5 μL of 2-mercaptoethanol were dissolved in 1 L of ultrapure water, and the pH of the solution was adjusted to 7.30 to 7.35 in a CO2 incubator of 37° C. The culture solution was supplemented with fetal bovine serum (Hyclone, Cat# SH30070.03) at a final concentration of 10% and penicillin-streptomycin at a final concentration of 0.5%.
The whole amount of the 0.5 mg CDG vial was recovered using 0.73 mL in total of 10% DMSO and dissolved by addition to 7.0 ml of a KRB solution for image acquisition according to the method described in Non Patent Literature 2.
The whole amount of one 0.5 mg 2-NBDLG vial was dissolved in 7.3 mL of a KRB solution for image acquisition.
The CDG solution and the 2-NBDLG solution were mixed at a ratio of 1:1. The whole amount of the 0.2 mg 2-TRLG vial was recovered using 130 μL in total of DMSO and mixed with 13 ml of the CDG+2-NBDLG mixed solution according to the method described in Non Patent Literature 2 (final concentration: 100 μM CDG+100 μM 2-NBDLG+20 μM 2-TRLG mixed solution). […]
The glass cover slip with the cultured MIN6 cells was transferred into the KRB solution for image acquisition in a perfusion chamber loaded on a stage of a fluorescence microscope, followed by measurement. […]
The KRB solution for image acquisition was warmed in advance in an aluminum syringe heater and supplied to the perfusion chamber through hydrostatic pressure. […] Immediately before being introduced to the perfusion chamber, the solution was rewarmed via an inline heater so that the actually measured temperature of the perfusate in an observation region in the chamber was adjusted to 36±1° C. […]

[3] = test system: neuronal cells of the substantia nigra pars reticulate of the midbrain; assay: Fluorescent imaging of acutely isolated normal neuronal cells; type: cell-based, mouse; details: 3 minutes, 8 minutes after start of washout
Description: The whole amount of the 0.5 mg CLG vial was recovered using 0.73 mL in total of 10% DMSO and dissolved (100 μM) by addition to 14.79 ml of a HEPES solution for image acquisition according to the method described in Non Patent Literature 2. […]
150 mM NaCl, 5 mM KCl, 1 mM MgCl2, 2 mM CaCl2, and 10 mM HEPES (the pH of the solution was adjusted to 7.4 with a 1 M tris(2-amino-2-hydroxymethyl-1,3-propanediol) solution). The concentration of glucose was set to 10 mM. 0.1 mM carbenoxolone (Sigma-Aldrich, #C4790) was added thereto for the purpose of inhibiting the entrance and exit of fluorescently labeled glucose by way of gap junction/hemichannel. This HEPES solution for image acquisition was used for preparing the CLG solution and the mixed solution with the additional fluorescent sugar derivative.
Neuronal cells […] to the method described in the previous reports of the inventors (WO2010/16587 (Patent Literature 2)) and (WO2012/133688 (Patent Literature 4)) and attached to each glass cover slip coated with poly-L-lysine. Then, the glass cover slip was transferred into the HEPES solution for image acquisition in a perfusion chamber loaded on a stage of a fluorescence microscope, followed by observation.
A silicon plate of 1 mm thickness bored to have a streamline-shaped hole (10 mm wide x 35 mm long) was placed via cover glass onto an aluminum heating control platform (Warner Instruments) having a round hole (diameter: 18 mm) for an objective lens at the bottom, and allowed to be in close contact with the cover glass.
The HEPES solution for image acquisition was warmed in advance in an aluminum syringe heater and supplied to the perfusion chamber through hydrostatic pressure. The perfusion rate was adjusted to 1.3±0.2 mL/min using a flow rate adjuster. Immediately before being introduced to the perfusion chamber, the solution was rewarmed via an inline heater so that the actually measured temperature of the perfusate in an observation region in the chamber was adjusted to 32.5±1° C. The CLG/2-TRLG mixed solution was able to be supplied in the same way as above and was switched with the HEPES solution for image acquisition using an electromagnetic valve capable of controlling the opening and closing of the channel. The solution was removed using a vacuum pump capable of controlling suction pressure.
The fluorescence microscope used was NIKON ECLIPS-Ti, and images were acquired with a CCD camera Retiga 2000R.
CLG and 2-TRLG were each detected using the following filter cassette.
Excitation 360/40 nm, Dichroic mirror 400 nm, Emission 460/50 nm.
Excitation 567/15 nm, Dichroic mirror 593 nm, Emission 593 nm Long pass.
The objective lens used in this method was ×20 dry lens (Nikon Plan S Fluor). The images were acquired at 1600×1200 pixels. […]

[4] = test system: mouse insulinoma cells (MIN6); assay: Increase in fluorescence intensity (uptake) after administration of fluorescent glucose derivative to MIN6 cells, influence of cytochalasin B (CB) or phloretin (PHT), fluorescence microplate reader; type: cell-based; details: QDG final concentration 100 NM as printed, Ex 354 nm, Em 435 nm

Compound	maximum excitation wavelength (Ex max) [1] [nm]	maximum fluorescence wavelength (Em max) [1]	also measured
O=c1ccc2ccc(NC3C(O)OC(CO)[C@H](O)[C@H]3O)cc2[nH]1 (stereo partly drawn) [QLG, 2-deoxy-2-(2-oxo-1,2-dihydroquinolin-7-yl)amino-L-glucose]	353.5	423.0 nm	
O=[N+]([O-])c1ccc(NC2C(O)OC(CO)[C@H](O)C2O)c2nonc12 (stereo partly drawn) [Compound 2-NBDLG, 2-[N-(7-nitrobenz-2-oxa-1,3-diazol-4-yl)amino]-2-deoxy-L-glucose, reference compound]		around 550 nm	uptake into cells of MIN6 spheroids, intracellular localization [2]: strongly taken into the cytoplasm
2-Texas Red-2-amino-2-deoxy-L-glucose [Compound 2-TRLG, reference compound]			uptake in the central portion of the spheroid [2]: strong uptake; uptake into normal neuronal cells ([3]; 100 μM CDG+20 μM 2-TRLG mixed solution, 14-day-old mouse): not taken into the normal neuronal cells; uptake into normal neuronal cells ([3]; 100 μM CLG+20 μM 2-TRLG mixed solution, 21-day-old mouse): not taken into the normal neuronal cells
O=c1oc2cc(NC3C(O)OC(CO)[C@@H](O)[C@@H]3O)ccc2cc1C(F)(F)F (stereo partly drawn) [Compound 3-TFMCDG, 2-deoxy-2-(2-oxo-3-trifluoromethyl-2H-chromen-7-yl)amino-D-glucose]	381.0	455.0 nm	
O=c1cc(C(F)(F)F)c2ccc(NC3C(O)OC(CO)[C@@H](O)C3O)cc2o1 (stereo partly drawn) [Compound 4-TFMCDG, 2-deoxy-2-(2-oxo-2H-4-trifluoromethyl-chromen-7-yl)amino-D-glucose]	380.0	500.0 nm	
Cc1cc2ccc(NC3C(O)OC(CO)[C@@H](O)[C@@H]3O)cc2oc1=O (stereo partly drawn) [Compound 3-MCDG, 2-deoxy-2-(2-oxo-3-methyl-2H-chromen-7-yl)amino-D-glucose]	361.0	460.0 nm	
O=c1ccc2ccc(NC3C(O)OC(CO)[C@@H](O)[C@@H]3O)cc2[nH]1 (stereo partly drawn) [QDG, 2-deoxy-2-(2-oxo-1,2-dihydroquinolin-7-yl)amino-D-glucose]	353.5	423.0 nm	effect of CB on increase in fluorescence intensity caused by administration ([4]; CB as in Example 11): significantly inhibited; effect of PHT on increase in fluorescence intensity caused by administration ([4]; PHT as in Example 12): more strongly inhibited
Cc1cc(=O)oc2cc(NC3C(O)OC(CO)[C@@H](O)[C@@H]3O)ccc12 (stereo partly drawn) [Compound 4-MCDG, 2-deoxy-2-(2-oxo-4-methyl-2H-chromen-7-yl)amino-D-glucose]	362.0	446.0 nm	
